Data published in PMC13194042, “GABAA receptor agonists modulate intracellular Ca^2+ levels in activated human CD4^+ T cells” (Frontiers in Immunology, 2026).
Read-outs that look alike come from different tables or passages of the source.

Experiments:
[1] = target: T1, GABAA receptors in activated human CD4+ T cells (Homo sapiens, UniProt P28476); conditions: ref [12], cited from earlier work
[2] = tested on: human resting CD4+ T cells; assay: Calcium imaging in resting CD4+ T cells; type: cell-based; conditions: GABA 500 nM; n = 47 cells
Experimental: Calcium imaging was performed as previously described ([12]). In brief, cells were loaded with 3 μM Fluo-8 AM calcium indicator (AAT Bioquest, Pleasanton, CA, USA) for 10 min at 37 °C and then seeded onto coverslips coated with 5% (3-aminopropyl)triethoxysilane (Sigma Aldrich) for 20 min at 37 °C. Calcium imaging was performed using a Zeiss LSM700 confocal microscope with a ×20 objective, capturing images at 0.5-s intervals. The recording solution was prepared by mixing two types of RPMI 1640 media, one containing 11 mM glucose (Gibco, Fisher Scientific, Sweden) and the other is glucose-free (Gibco, Fisher Scientific, Sweden). They were mixed in a 1:1 ratio, giving a final glucose concentration of 5.5 mM. The drugs were diluted in the recording solution and perfused into the chamber at specific concentrations using a peristaltic pump. After each drug application, the cells were perfused with the recording solution only to remove the drug. When the cells were again in the recording solution only, then the next test drug concentration was perfused into the chamber. […] The area around the individual cells was marked, and absolute fluorescence intensity values (F) were extracted using ZENBlue software. The relative intensity (F/Fmedian) for each cell was calculated for every recorded image and plotted against time. […]

[3] = target: T1, GABAA receptors in activated human CD4+ T cells; assay: Calcium imaging: agonist-evoked intracellular Ca2+ response in activated CD4+ T cells; type: cell-based
Source text: Human blood samples and blood buffy coats were obtained from Uppsala University Hospital (Uppsala Akademiska sjukhuset), the protocol of which was approved by the Regional Research Ethics Committee in Uppsala (Dnr 2013/347). All individuals who donated blood were voluntarily recruited. Peripheral blood mononuclear cells (PBMCs) were isolated from blood samples using density-gradient centrifugation with Ficoll-Paque™ PLUS (Sigma Aldrich, Sweden). Subsequently, CD4^+ T lymphocytes were isolated from the PBMCs by negative selection, utilizing a human CD4^+ T lymphocyte isolation kit (Miltenyi Biotec, Germany) as per the manufacturer’s instructions. The freshly isolated CD4^+ T lymphocytes (1 million cells/mL) were suspended in human plasma-like medium (HPLM) (Gibco, Fisher Scientific, Sweden) containing 10% heat-inactivated dialyzed fetal bovine serum (Gibco, Fisher Scientific, Sweden), 100 μg/mL streptomycin, 100 U/mL penicillin (Gibco, Fisher Scientific, Sweden), and 5 μM β-mercaptoethanol (Gibco, Fisher Scientific, Sweden). The cells were activated in a 96-well plate (1 × 10^5–1.2 × 10^5 cells/well) with 3 μg/mL plate-bound anti-CD3 antibody (BD Biosciences, USA) for 72 h. Insulin (1 nM) was added at 48 h after the activation of the cells. The anti-CD3 concentration (5 μg/mL) used by Jacobs et al. ([14]) is similar to the one employed in this study. […] Akt-dependent signaling is activated by insulin at 48 h post-activation and is reminiscent of the anti-CD28-evoked signaling ([14]).
Calcium imaging was performed as previously described ([12]). In brief, cells were loaded with 3 μM Fluo-8 AM calcium indicator (AAT Bioquest, Pleasanton, CA, USA) for 10 min at 37 °C and then seeded onto coverslips coated with 5% (3-aminopropyl)triethoxysilane (Sigma Aldrich) for 20 min at 37 °C. Calcium imaging was performed using a Zeiss LSM700 confocal microscope with a ×20 objective, capturing images at 0.5-s intervals. The recording solution was prepared by mixing two types of RPMI 1640 media, one containing 11 mM glucose (Gibco, Fisher Scientific, Sweden) and the other is glucose-free (Gibco, Fisher Scientific, Sweden). They were mixed in a 1:1 ratio, giving a final glucose concentration of 5.5 mM. The drugs were diluted in the recording solution and perfused into the chamber at specific concentrations using a peristaltic pump. After each drug application, the cells were perfused with the recording solution only to remove the drug. When the cells were again in the recording solution only, then the next test drug concentration was perfused into the chamber. This was done so that the receptors/cells had always been in a drug-free solution before a drug application, thus avoiding potential cumulative drug effects such as run-down or desensitization. The area around the individual cells was marked, and absolute fluorescence intensity values (F) were extracted using ZENBlue software. The relative intensity (F/Fmedian) for each cell was calculated for every recorded image and plotted against time. The peak relative intensity during the drug application was considered the drug’s response. Data are presented for all cells as scatter plots and box and whisker plots.
Single-cell data presentation and agonist-Ca^2+-response data were fitted in GraphPad Prism 10 (GraphPad Software Inc., La Jolla, CA, USA). The data were fitted using nonlinear regression with a standard dose–response model:
(F/Fmedian)max=[agonist]/[agonist]+(EC50)agonist

KCa3.1 channels = target: T2, KCa3.1 channels (Homo sapiens, UniProt O15554); assay: Calcium imaging: block of GABA-activated Ca2+ signal by KCa3.1 blocker; type: cell-based; conditions: GABA 500 nM; TRAM-34 1 µM; average, n = 169 cells, N = 3 donors
T2 construct: endogenous in cells
Source text: Peripheral blood mononuclear cells (PBMCs) were isolated from blood samples using density-gradient centrifugation with Ficoll-Paque™ PLUS (Sigma Aldrich, Sweden). Subsequently, CD4^+ T lymphocytes were isolated from the PBMCs by negative selection, utilizing a human CD4^+ T lymphocyte isolation kit (Miltenyi Biotec, Germany) as per the manufacturer’s instructions. The freshly isolated CD4^+ T lymphocytes (1 million cells/mL) were suspended in human plasma-like medium (HPLM) (Gibco, Fisher Scientific, Sweden) containing 10% heat-inactivated dialyzed fetal bovine serum (Gibco, Fisher Scientific, Sweden), 100 μg/mL streptomycin, 100 U/mL penicillin (Gibco, Fisher Scientific, Sweden), and 5 μM β-mercaptoethanol (Gibco, Fisher Scientific, Sweden). The cells were activated in a 96-well plate (1 × 10^5–1.2 × 10^5 cells/well) with 3 μg/mL plate-bound anti-CD3 antibody (BD Biosciences, USA) for 72 h. […]
In brief, cells were loaded with 3 μM Fluo-8 AM calcium indicator (AAT Bioquest, Pleasanton, CA, USA) for 10 min at 37 °C and then seeded onto coverslips coated with 5% (3-aminopropyl)triethoxysilane (Sigma Aldrich) for 20 min at 37 °C. […] The area around the individual cells was marked, and absolute fluorescence intensity values (F) were extracted using ZENBlue software. The relative intensity (F/Fmedian) for each cell was calculated for every recorded image and plotted against time. […]

CRAC channel current = target: T3, CRAC channel current (Homo sapiens, UniProt Q96D31); assay: Whole-cell patch-clamp recording of CRAC-channel-mediated current; type: cell-based
T3 construct: endogenous in cells
Source text: To study the effect of YM58483 and picrotoxin (PTX) on CRAC-channel-mediated currents, the electrophysiological patch-clamp recordings were done in the whole-cell configuration. The extracellular solution was composed of the following (in mM): 155 NaCl, 4.5 KCl, 2 CaCl2, 1 MgCl2, 5 HEPES, and 5.6 glucose (pH 7.4, adjusted with NaOH). The pipette solution consisted of the following (in mM): 140 Cs methanesulfonate, 10 NaCl, 3 MgCl2, 10 HEPES, and 10 EGTA (pH 7.3, with CsOH). We further examined the recovery of currents during repeated drug applications to evaluate the level of run-down and desensitization, if present. In these experiments, in order to keep the intracellular chloride concentration intact, gramicidin (2.6 μg/mL) was used to obtain the perforated configuration. The extracellular solution (in mM) contained the following: 157 NaCl, 4.5 KCl, 0.5 CaCl2, 1 MgCl2, 5 HEPES, and 5.6 glucose (pH 7.4, adjusted with NaOH), and the pipette solution consisted of the following (mM): 149 KCl, 2 CaCl2, 1 MgCl2, 1 NaCl, 10 HEPES, and 5.6 glucose (pH 7.3, adjusted with KOH). […] Recordings were performed with the help of an Axopatch 200B amplifier, filtered at 2 kHz, and digitized at 10 kHz with an analog-to-digital converter. For the recordings, the Clampex 10.5 (Molecular Devices, San Jose, CA, USA) program was used. […]

CRAC channels = target: T4, CRAC channels (Homo sapiens, UniProt Q96D31); assay: Calcium imaging: block of GABA-mediated Ca2+ influx by CRAC channel inhibitor; type: cell-based; conditions: YM-58483 10 μM, acute application; n = 116 cells, N = 3 donors
T4 construct: endogenous in cells
Source text: Human blood samples and blood buffy coats were obtained from Uppsala University Hospital (Uppsala Akademiska sjukhuset), the protocol of which was approved by the Regional Research Ethics Committee in Uppsala (Dnr 2013/347). All individuals who donated blood were voluntarily recruited. Peripheral blood mononuclear cells (PBMCs) were isolated from blood samples using density-gradient centrifugation with Ficoll-Paque™ PLUS (Sigma Aldrich, Sweden). Subsequently, CD4^+ T lymphocytes were isolated from the PBMCs by negative selection, utilizing a human CD4^+ T lymphocyte isolation kit (Miltenyi Biotec, Germany) as per the manufacturer’s instructions. The freshly isolated CD4^+ T lymphocytes (1 million cells/mL) were suspended in human plasma-like medium (HPLM) (Gibco, Fisher Scientific, Sweden) containing 10% heat-inactivated dialyzed fetal bovine serum (Gibco, Fisher Scientific, Sweden), 100 μg/mL streptomycin, 100 U/mL penicillin (Gibco, Fisher Scientific, Sweden), and 5 μM β-mercaptoethanol (Gibco, Fisher Scientific, Sweden). […]
Calcium imaging was performed as previously described ([12]). […] The area around the individual cells was marked, and absolute fluorescence intensity values (F) were extracted using ZENBlue software. The relative intensity (F/Fmedian) for each cell was calculated for every recorded image and plotted against time. […]

[4] = read-out: EC50, half-maximal activation concentration of the evoked Ca2+ signal; activated CD4+ T cells, 72 h post-activation, 1 nM insulin last 24 h, 5.5 mM glucose

T1 sequence (P28476 21-465): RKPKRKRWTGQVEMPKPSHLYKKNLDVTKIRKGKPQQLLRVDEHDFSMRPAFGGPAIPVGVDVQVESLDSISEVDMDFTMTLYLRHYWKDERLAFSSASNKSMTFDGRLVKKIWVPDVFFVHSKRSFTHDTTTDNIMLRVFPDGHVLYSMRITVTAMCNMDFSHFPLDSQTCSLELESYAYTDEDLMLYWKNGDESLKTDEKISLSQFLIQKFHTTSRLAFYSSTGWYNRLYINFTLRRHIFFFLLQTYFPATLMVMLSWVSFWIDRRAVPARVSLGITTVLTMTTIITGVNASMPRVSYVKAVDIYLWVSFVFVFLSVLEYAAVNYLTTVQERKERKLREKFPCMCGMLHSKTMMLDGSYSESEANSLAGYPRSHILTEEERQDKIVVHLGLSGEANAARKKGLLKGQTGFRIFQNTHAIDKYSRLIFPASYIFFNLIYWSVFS
T3 sequence (Q96D31 whole entry): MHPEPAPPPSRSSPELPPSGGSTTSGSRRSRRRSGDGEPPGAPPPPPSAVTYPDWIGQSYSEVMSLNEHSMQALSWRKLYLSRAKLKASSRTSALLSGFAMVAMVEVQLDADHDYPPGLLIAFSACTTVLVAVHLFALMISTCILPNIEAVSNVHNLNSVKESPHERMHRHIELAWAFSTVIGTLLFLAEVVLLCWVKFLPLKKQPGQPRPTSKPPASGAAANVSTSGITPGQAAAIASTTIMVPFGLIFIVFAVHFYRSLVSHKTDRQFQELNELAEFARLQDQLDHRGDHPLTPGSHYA
T2 sequence (O15554 whole entry): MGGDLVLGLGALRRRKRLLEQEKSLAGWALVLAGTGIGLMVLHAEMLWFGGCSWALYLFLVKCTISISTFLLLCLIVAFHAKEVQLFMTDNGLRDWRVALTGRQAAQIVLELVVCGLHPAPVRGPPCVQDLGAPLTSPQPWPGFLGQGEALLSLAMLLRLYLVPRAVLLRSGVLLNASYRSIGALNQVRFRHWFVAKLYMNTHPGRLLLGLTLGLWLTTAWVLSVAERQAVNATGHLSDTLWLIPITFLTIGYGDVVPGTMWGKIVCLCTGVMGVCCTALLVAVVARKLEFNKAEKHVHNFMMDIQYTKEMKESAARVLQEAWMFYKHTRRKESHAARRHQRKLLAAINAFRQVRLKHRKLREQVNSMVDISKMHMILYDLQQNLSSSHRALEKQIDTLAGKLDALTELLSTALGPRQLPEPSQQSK
T4 sequence (Q96D31 whole entry): as the sequence (Q96D31 whole entry) above

NCCCC(=O)O [GABA, γ-Aminobutyric acid]
EC50 ([1]; read-out: EC50 of the GABA-evoked Ca2+ signal): 0.005 nM | Ca2+ response in resting CD4+ T cells [2]: does not evoke a calcium response

NC/C=C/C(=O)O [TACA, trans-4-aminocrotonic acid]
EC50 for the Ca2+-evoked signal relative to GABA (fold higher) ([3]; TACA vs GABA): approximately 500 fold | relative maximum Ca2+ signal (F/Fmedian) ([3]; in 500 nM TACA): 1.10 | EC50 [3, 4]: 2.2 nM

Oc1noc2c1CCNC2 [THIP, 4,5,6,7-tetrahydroisoxazolo(5,4-c)pyridin-3-ol]
relative maximum Ca2+ signal (F/Fmedian) ([3]; in 100 nM THIP): 1.20 | EC50 [3, 4]: 0.005 nM

Clc1ccccc1C(c1ccccc1)(c1ccccc1)n1cccn1 [TRAM-34]
inhibition of GABA-induced increase in intracellular Ca2+ levels (KCa3.1 channels): ~100%

Cc1nnsc1C(=O)Nc1ccc(-n2nc(C(F)(F)F)cc2C(F)(F)F)cc1 [YM58483]
reduction of the Ca2+ (CRAC channel) current (CRAC channel current; 10 μM YM58483, whole-cell, voltage ramps, current normalized to control): approximately 40% | effect on GABA (500 nM)-evoked increase in intracellular Ca2+ levels (CRAC channels): inhibited

O=C(O)C1=CCNCC1 [isoguvacine]
EC50 ([3]; activated CD4+ T cells, 72 h post-activation, 1 nM insulin last 24 h, 5.5 mM glucose; read-out: EC50, half-maximal activation concentration of the evoked Ca2+ signal): 54.4 nM | relative maximum Ca2+ signal (F/Fmedian) ([3]; in 10 μM isoguvacine): 1.13

NCc1cc(=O)[nH]o1 [muscimol]
relative maximum Ca2+ signal (F/Fmedian) ([3]; at 1 μM muscimol): approximately 1.17 | EC50 [3, 4]: 0.162 nM

Picrotoxin
effect on the Ca2+ (CRAC channel) current (CRAC channel current; whole-cell, current at -80 mV normalized to control, n = 3 cells, N = 2 donors): did not reduce the Ca^2+ current | effect on muscimol (500 nM)- or TACA (500 nM)-evoked Ca2+ signals [1]: blocked
